Results: ChEMBL document CHEMBL1201862, “PubChem BioAssay data set” (2004)
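These data come from cells grown in 96-well plates and exposed to compound for 48 hours at five concentrations. The concentration for 50% growth inhibition is given as GI50.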 Active and inactive are the calls of the source. No stated cut-off is given here; in the data, active = GI50 up to about 1.1 µM and inactive = higher.

Legend:
Experiment in all cases: growth of human tumour cells (NCI), 48 h
MDA-MB-231 = tested on: MDA-MB-231
DU-145 = tested on: DU-145
SNB-19 = tested on: SNB-19
SK-MEL-28 = tested on: SK-MEL-28
PC-3 = tested on: PC-3
HCT-116 = tested on: HCT-116
SF-268 = tested on: SF-268
SNB-75 = tested on: SNB-75
LOX IMVI = tested on: LOX IMVI
HCT-15 = tested on: HCT-15
KM12 = tested on: KM12
SF-295 = tested on: SF-295
HOP-92 = tested on: HOP-92
TK-10 = tested on: TK-10
Hs-578T = tested on: Hs-578T
M14 = tested on: M14
OVCAR-5 = tested on: OVCAR-5
COLO 205 = tested on: COLO 205
EKVX = tested on: EKVX
NCI-H460 = tested on: NCI-H460

SMILES | GI50 (MDA-MB-231) | GI50 (DU-145) | GI50 (SNB-19) | GI50 (SK-MEL-28) | GI50 (PC-3) | GI50 (HCT-116) | GI50 (SF-268) | GI50 (SNB-75) | GI50 (LOX IMVI) | GI50 (HCT-15) [µM] | GI50 (KM12) | GI50 (SF-295) | GI50 (HOP-92) | GI50 (TK-10) | GI50 (Hs-578T) | GI50 (M14) | GI50 (OVCAR-5) | GI50 (COLO 205) | GI50 (EKVX) | GI50 (NCI-H460)
CCOC(=O)P(=O)(O)c1ccc(N(C)Cc2ccccc2)cc1 | > 100 µM (inactive) | > 100 µM (inactive) | > 100 µM (inactive) | > 100 µM (inactive) | > 100 µM (inactive) | > 100 µM (inactive) | > 100 µM (inactive) | > 100 µM (inactive) | > 100 µM (inactive) | > 100 | > 100 µM (inactive) | > 100 µM (inactive) | > 100 µM (inactive) | > 100 µM (inactive) | > 100 µM (inactive) | > 100 µM (inactive) | > 100 µM (inactive) | > 100 µM (inactive) | > 100 µM (inactive) | 
Nc1nc(Cl)cc(NCC2(CO)CCC2)n1 | > 100 µM (inactive) | > 100 µM (inactive) | > 100 µM (inactive) | > 100 µM (inactive) | > 100 µM (inactive) | > 100 µM (inactive) | > 100 µM (inactive) | > 100 µM (inactive) | > 100 µM (inactive) | > 100 | > 100 µM (inactive) | > 100 µM (inactive) | > 100 µM (inactive) | > 100 µM (inactive) | > 100 µM (inactive) |  | > 100 µM (inactive) | > 100 µM (inactive) | 75.2 µM (inactive) | > 100 µM (inactive)
O=[N+]([O-])c1cccc([N+](=O)[O-])c1Cl | 21.2 µM (inactive) | 2.86 µM (inactive) | 13.1 µM (inactive) | 21.1 µM (inactive) | 13.5 µM (inactive) | 40.6 µM (inactive) | 19.4 µM (inactive) | 30.3 µM (inactive) | 1.35 µM (inactive) | 12.1 | 11.1 µM (inactive) | 16.1 µM (inactive) | 18.8 µM (inactive) | 21.9 µM (inactive) | 27 µM (inactive) | 10.2 µM (inactive) | 19.1 µM (inactive) | 20.6 µM (inactive) | 20.3 µM (inactive) | 23.3 µM (inactive)
O=C1CC[N+]2=Cc3ccccc3O[B-]2(c2ccccc2)O1 (stereo not drawn) | > 100 µM (inactive) | > 100 µM (inactive) | > 100 µM (inactive) | > 100 µM (inactive) | > 100 µM (inactive) | > 100 µM (inactive) | > 100 µM (inactive) | 67.1 µM (inactive) | > 100 µM (inactive) | > 100 | > 100 µM (inactive) | > 100 µM (inactive) | 21.5 µM (inactive) | > 100 µM (inactive) | > 100 µM (inactive) | > 100 µM (inactive) | > 100 µM (inactive) | > 100 µM (inactive) | > 100 µM (inactive) | > 100 µM (inactive)
COc1cc2oc3ccccc3c(=O)c2cc1CSc1ccccc1N | 27.7 µM (inactive) | 21.1 µM (inactive) | 56.5 µM (inactive) | 18.7 µM (inactive) | 14.5 µM (inactive) | 19.5 µM (inactive) | 41.1 µM (inactive) | 30.8 µM (inactive) | 29.7 µM (inactive) | 6.95 | 4.62 µM (inactive) | 14.2 µM (inactive) | 35.2 µM (inactive) | 35.5 µM (inactive) | 36 µM (inactive) | 23.2 µM (inactive) | > 81.8 µM (inactive) | 15.8 µM (inactive) | 24.1 µM (inactive) | 15.1 µM (inactive)
CSC1=C(C)S/C(=C\c2ccc(/C=C3\SC(C)=C(SC)S3)cc2)S1 | > 100 µM (inactive) | > 100 µM (inactive) | > 100 µM (inactive) | > 100 µM (inactive) | > 100 µM (inactive) | > 100 µM (inactive) | > 100 µM (inactive) | 41.6 µM (inactive) | > 100 µM (inactive) | > 100 | > 100 µM (inactive) | 88.9 µM (inactive) | 39.3 µM (inactive) | 89.3 µM (inactive) | 83 µM (inactive) | > 100 µM (inactive) | > 100 µM (inactive) | > 100 µM (inactive) | > 100 µM (inactive) | > 100 µM (inactive)
O=C1CCCc2cc3c(cc21)CC1(C3)Cc2cc3c(cc2C1)C(=O)CCC3 | 3.16 µM (inactive) | 2.18 µM (inactive) | 4.58 µM (inactive) | 3.23 µM (inactive) | 1.24 µM (inactive) | 0.706 µM (active) | 3.37 µM (inactive) | 2.2 µM (inactive) | 1.48 µM (inactive) | 0.662 | 0.493 µM (active) | 0.923 µM (active) | 6.78 µM (inactive) | 1.81 µM (inactive) | 2.64 µM (inactive) | 0.536 µM (active) | 4.54 µM (inactive) | 1.33 µM (inactive) | 5.48 µM (inactive) | 1.22 µM (inactive)
CSc1nc2c(c(N(C)C)n1)C(O)n1c(nc3ccccc31)S2 (stereo not drawn) | 28 µM (inactive) | 69.7 µM (inactive) | 25.4 µM (inactive) | 46.2 µM (inactive) | > 100 µM (inactive) | 23 µM (inactive) | 32.7 µM (inactive) | 17.1 µM (inactive) | 9.38 µM (inactive) | > 100 | > 100 µM (inactive) | 38.1 µM (inactive) | 43.3 µM (inactive) | > 53.2 µM (inactive) | 14.1 µM (inactive) | > 65.3 µM (inactive) | > 100 µM (inactive) | > 100 µM (inactive) | > 100 µM (inactive) | 73.5 µM (inactive)
CCCCC1C=Cn2c(=O)oc3c(OC(C)C)c(OC(C)C)c(O)c1c32 (stereo not drawn) | 14.1 µM (inactive) | 14.8 µM (inactive) | 18.2 µM (inactive) | 13.6 µM (inactive) | 38.2 µM (inactive) | 17.4 µM (inactive) | 18.5 µM (inactive) | 13 µM (inactive) | 14.3 µM (inactive) | 14.6 | 14.4 µM (inactive) | 18.5 µM (inactive) | 14.3 µM (inactive) | 16.3 µM (inactive) | 18.3 µM (inactive) | 22.3 µM (inactive) | 17.2 µM (inactive) | 16.3 µM (inactive) | 29.9 µM (inactive) | 15.4 µM (inactive)
CCCCCCc1cc2cc(C(=O)NCc3ccccc3)c(=N)oc2cc1O | > 100 µM (inactive) | > 100 µM (inactive) | > 100 µM (inactive) | > 100 µM (inactive) | > 100 µM (inactive) | > 100 µM (inactive) | > 100 µM (inactive) | > 100 µM (inactive) | > 100 µM (inactive) | > 100 | > 100 µM (inactive) |  | > 100 µM (inactive) |  | > 100 µM (inactive) | > 100 µM (inactive) | > 100 µM (inactive) | > 100 µM (inactive) | > 100 µM (inactive) | > 100 µM (inactive)
CC(=O)CC1CCC(=O)CCC(=O)OC(CC(C)=O)CCC(=O)CCC(=O)O1 (stereo not drawn) | > 100 µM (inactive) | > 100 µM (inactive) | > 100 µM (inactive) | > 100 µM (inactive) | > 100 µM (inactive) | > 100 µM (inactive) | > 100 µM (inactive) | > 100 µM (inactive) |  | > 100 | > 100 µM (inactive) | > 100 µM (inactive) | > 100 µM (inactive) | > 100 µM (inactive) | > 100 µM (inactive) | > 100 µM (inactive) | > 100 µM (inactive) | > 100 µM (inactive) | > 100 µM (inactive) | > 100 µM (inactive)
O=C(Nc1nc(C23CC4CC(CC(C4)C2)C3)cs1)c1cc2cc(Br)cc(Br)c2oc1=O | 52.6 µM (inactive) | 65.5 µM (inactive) | 41.8 µM (inactive) | > 100 µM (inactive) | 71.1 µM (inactive) | 59 µM (inactive) | 37.8 µM (inactive) | 26.9 µM (inactive) | > 100 µM (inactive) | > 100 | > 100 µM (inactive) | 40.6 µM (inactive) | 46 µM (inactive) | > 100 µM (inactive) | 27.4 µM (inactive) |  | > 100 µM (inactive) | > 100 µM (inactive) | 39.4 µM (inactive) | 37 µM (inactive)
O=c1oc2c(ccc3ccccc32)cc1C1=CSC2=NCCN12 | 38.3 µM (inactive) | 26.5 µM (inactive) | 38.6 µM (inactive) | 35.2 µM (inactive) | 71.4 µM (inactive) | 32.4 µM (inactive) | 57.9 µM (inactive) | > 100 µM (inactive) | 49.7 µM (inactive) | 38.4 | 55.5 µM (inactive) | 33 µM (inactive) | 24.4 µM (inactive) | 49.3 µM (inactive) | 73.1 µM (inactive) | 50.2 µM (inactive) |  | 50 µM (inactive) | 25.5 µM (inactive) | 36.7 µM (inactive)
COc1ccc2[nH]c(CCNC(=O)c3cc([N+](=O)[O-])cc([N+](=O)[O-])c3)cc2c1 | 25.4 µM (inactive) | > 100 µM (inactive) | 35.6 µM (inactive) | > 100 µM (inactive) | > 100 µM (inactive) | > 100 µM (inactive) | 25 µM (inactive) | 19.4 µM (inactive) | 64.1 µM (inactive) | > 100 | > 100 µM (inactive) |  | 21.2 µM (inactive) | 46.8 µM (inactive) | 58.9 µM (inactive) | > 100 µM (inactive) |  | > 100 µM (inactive) |  | > 100 µM (inactive)
COC(=O)c1ccc2c(c1)CC1(C2)Cc2cc3c(c(C(=O)OC)c2C1)CCCC3 (stereo not drawn) | 64.3 µM (inactive) | > 100 µM (inactive) |  | > 100 µM (inactive) | 54.1 µM (inactive) | 44.6 µM (inactive) | > 100 µM (inactive) | 77.6 µM (inactive) | 51.4 µM (inactive) | 67.8 | > 100 µM (inactive) | 50 µM (inactive) | 22.4 µM (inactive) | 72.1 µM (inactive) | > 100 µM (inactive) |  | > 100 µM (inactive) | 49.4 µM (inactive) | 60 µM (inactive) | 96.6 µM (inactive)
